Entries after “also recorded” stand apart in the source; their conditions may differ. Like-named read-outs stand apart in the source and are kept apart here. Ends that are not written are not given here.

Test [1] has as its system explanted DRG. Briefly: Neurite outgrowth from explanted DRG cultures (Example 3). It is filed as cell-based, C57/B16 mice. Conditions: for neurite outgrowth relative to non-treated cultures / INGAP peptide-stimulated neurite outgrowth after preincubation with anti-NGF antibody: INGAP peptide 1000 ng/mL; for neurite outgrowth relative to non-treated cultures: NGF 50 ng/mL, 17-β-estradiol 10 nM, 4 and 7 days; for overall length and density of neurite outgrowth vs non-treated DRG: 4 days in culture; for neurite outgrowth in combination with 17-β-estradiol vs either drug alone: INGAP peptide 1000 ng/mL + 17-β-estradiol 10 nM; for neurite outgrowth in combination with NGF vs INGAP peptide alone: INGAP peptide 1000 ng/mL + NGF 50 ng/mL; for INGAP peptide-stimulated neurite outgrowth after preincubation with anti-NGF antibody: cultures pre-incubated with anti-NGF antibody. The procedure:
(§1) DRG (L3, L4, L5) were dissected from wild-type C57/B16 mice <, and DRG explants were cultured in […] of Matrigel at 37° C. (5% CO2) for 24 h in phenol-red free RPMI 1640 media-free supplemented with 1% penicillin/streptomycin. Neurite outgrowth was followed for 7 days and was visualized with an OLYMPUS™ BX51 system microscope equipped with a Dage-MTI CCD300-RC camera coupled to a Powermate™ 8100 Pentium™III computer (NEC Corp.) with 128 MB RAM. Bright-field microscope images were stored in uncompressed tagged image file format (TIFF) at a resolution of 600 d.p.i. and analyzed using MCID-M5+5.1 image analysis software (Imaging Research Inc.) and SYSTAT 9 statistical software (SPSS Inc.).
(§2) In all experiments, statistical significance was determined using one-way ANOVA and post-hoc Dunnett's test. The experimental group size was n=4-5, and differences were considered significant where P<0.05.

Test [2] concerns dorsal route ganglia (DRG) explant cultures. Briefly: Neurite outgrowth in DRG explant cultures (Example 1). The class given is cell-based, male C57BL/6 mice. Conditions: DRG explants. The procedure:
Using male C57BL/6 mice, dorsal route ganglia (DRG) explant cultures were established to examine the effect of the INGAP peptide of the present invention on neurite outgrowth (FIG. 1). DRG (L3, L4) were dissected from male C57BL/6 mice, and DRG explants were cultured in 14 uL of Matrigel in 2 ml of RPMI 1640 media+1% antibiotic.

The next test concerns DRG explant cultures. The experiment in a line: MTT assay of DRG cell viability (Example 2). The class given is cell-based, Balb/C mice. The procedure: Using DRG explant cultures, we examined the effects of the INGAP peptide of the present invention, as well as other agents, on DRG cell viability using the MTT assay (FIG. 2). DRG (L3, L4) were dissected from Balb/C mice, and DRG explants were cultured in 14 uL of Matrigel in 2 ml of RPMI 1640 media+1% antibiotic. After 48 hours, INGAP, β-estradiol, and/or FK506 were added to the explant cultures as indicated. MTT assay was performed 7 days after the addition of drugs. Data were analyzed using one-way ANOVA with post-hoc Tuckey” test. Differences were consider significant where p<0.05. (n=3-4 per treatment group).
A general note: Formazan colour is commonly taken as a measure of viable cells.

The test system of test [3] is explanted DRG. Briefly: MTT assay, mitochondrial activity in explanted DRG (Example 3). It is filed as cell-based, C57/B16 mice. The procedure: as §1
For cell viability assays, MTT was dissolved in phosphate buffered saline (1.9 mM NaH2PO4, 8.1 mM Na2HPO4, 154 mM NaCl) and applied to DRG explant cultures at a concentration of 1.2 mM for 2 h at (37° C., 5% CO2). Media were then aspirated, and each DRG explant was incubated in […] of DMSO for 1 h. […] of DMSO from each explant was transferred to a 96-well plate and absorbance at 595 nm was read on a Bio-Rad Benchmark plate reader.
as §2

For the next test, the system named is DRG explants. Briefly: [3H]thymidine incorporation in DRG explants (Example 3). The class given is cell-based, C57/B16 mice. Conditions: 4 days in culture; for [3H] thymidine incorporation relative to non-treated controls: 100 ng/mL. The procedure: as §1
For [3H]thymidine incorporation assays, serum-starved DRG ex-plants cultured in Matrigel were exposed to Ingap (100-1000 ng/mL) for 48 h. 1 p Ci/ml of [3H]thymidine was added to each DRG and kept for an additional 48 h, after which time the DRG were washed four times with ice-cold trichloroacetic acid (10%). Ganglia were lysed on ice in 100pL of tissue solubilizer (NCS-II, Amersham). Lysates were transferred to individual 4 mL scintillation counting vials, and 4 mL of liquid scintillation counting cocktail (Fischer SX25-5 ScintiSafe Plus 50%) was added to each lysate. Counting was performed on a Wallac 1410 liquid scintillation counter.
as §2

Test [4] relates to cells associated with the ductal epithelium. The conditions noted are these: normal, adult mouse; cited from earlier work.
Test [5] has the same test system. Conditions: normal, adult hamster; cited from earlier work.

Consider “NGF: conventional neurotrophic agent, nerve growth factor [reference compound]”, for which the “neurite outgrowth relative to non-treated cultures” value with explanted DRG [1] is given as “strong neurite outgrowth”.
Take “GLHDPSHGTLPNGSG [15-amino-acid fragment (amino acids 104-118) of Islet Neogenesis Associated Protein]”: in test [2], the “neurite-promoting effect compared with nerve growth factor (NGF)” value is reported as “comparable”. Moreover, the neurite-promoting effect entry in test [2] (FIG. 1) is recorded as “effective, in a dose-dependent fashion, as a neurite-promoting agent”. Besides, the “MTT reduction (cell viability)” value in the test on DRG explant cultures (doses 100 ng/mL to 1,500 ng/mL, MTT 7 days after addition of drugs) was “tremendous increase in MTT reduction”. Further, the “dose of maximal effect on MTT reduction” value in the test on DRG explant cultures (no significant change with 1000 or 1,500 ng/mL) worked out at 500 ng/mL. Moreover, the “neurite outgrowth vs non-treated DRG” value with explanted DRG [1] (100 ng/mL, any time point examined) is reported as “No effects”; with explanted DRG [1] (100 ng/mL, any time point examined, listed as INGAP), “did not have a significant effect”; in the test with explanted DRG [1] (1000 ng/mL, 7 days in culture), “continued to significantly enhance neurite outgrowth”; in the test on explanted DRG [1] (24 h, regardless of the drug concentration), “no significant differences”. Moreover, the “overall length and density of neurite outgrowth vs non-treated DRG” value in the test with explanted DRG [1] (500 ng/mL, listed as INGAP) was “significant enhancement”; with explanted DRG [1] (500 ng/mL), “Significant effects”; with explanted DRG [1] (1000 ng/mL), “Significant effects”; in the test with explanted DRG [1] (1000 ng/mL, listed as INGAP), “significant enhancement”. The “optimal dose for neurite outgrowth” value in the test with explanted DRG [1] (DRG explants) is listed as 1000 ng/mL. In addition, the “neurite outgrowth in combination with 17-β-estradiol vs either drug alone” value in the test with explanted DRG [1] is on record as “No significant enhancement”; in the test with explanted DRG [1] (listed as INGAP), “not significantly different”. The “neurite outgrowth in combination with NGF vs INGAP peptide alone” value in the test on explanted DRG [1] is recorded as “enhances neurite outgrowth”; with explanted DRG [1] (listed as INGAP) it was “Enhanced effects on neurite outgrowth”. The “neurite outgrowth relative to non-treated cultures” value is on record as “strong neurite outgrowth; also recorded: stimulates neurite outgrowth from the DRG explants, to an extent similar to that of the prototypical growth factor” with explanted DRG [1] and “stimulates neurite outgrowth to an extent similar to that of NGF” in the test on explanted DRG [1] (listed as INGAP). In addition, the “INGAP peptide-stimulated neurite outgrowth after preincubation with anti-NGF antibody” value with explanted DRG [1] was “marked reduction”; in the test on explanted DRG [1] (listed as INGAP) it was “strong reduction”. The “mitochondrial activity (MTT reduction) vs non-treated controls” value was “significant increase in mitochondrial activity” in the test with explanted DRG [3] (1000 ng/mL, 4 days in culture); “significantly larger MTT reduction” with explanted DRG [3] (1000 ng/mL, 4 days in culture, listed as INGAP); “no significant effects” with explanted DRG [3] (100, 500, 1000 ng/mL, 24 h in culture); “no significant effect” with explanted DRG [3] (100, 500, 1000 ng/mL, 24 h in culture, listed as INGAP); “trend toward enhanced cell viability” in the test on explanted DRG [3] (500 and 1000 ng/mL, 7 days in culture, P>0.05). Moreover, the figures for the “[3H] thymidine incorporation relative to non-treated controls” value with DRG explants and with DRG explants (listed as INGAP) were “no significant effects” and “no significant effect”, respectively. Also, the “increase in [3H] thymidine incorporation relative to non-treated controls” value in the test with DRG explants (500 ng/mL) is reported as 3 fold. The “islet-cell neogenesis, new islet formation” value in test [4] and in test [5] was “potent inducer of islet-cell neogenesis” throughout.
Regarding `C[C@]12CC[C@@H]3c4ccc(O)cc4CC[C@H]3[C@@H]1CC[C@@H]2O` [17-β-estradiol, reference compound], in the test with explanted DRG [1], the “neurite outgrowth relative to non-treated cultures” value is listed as “strong neurite outgrowth”.
